Values of other authors in publication PMC9516332 (Frontiers in Oncology, 2022).
Like-named read-outs stand apart in the source and are kept apart here.

Columns and labels:
Settings in all cases: cited from earlier work
[1] = biological target: panel of 255 wild-type kinases (Homo sapiens, UniProt P49759)
[2] = biological target: panel of 255 wild-type kinases (Homo sapiens, UniProt P19525)
[3] = biological target: panel of 255 wild-type kinases (Homo sapiens, UniProt Q13131)
[4] = biological target: T1, panel of 255 wild-type kinases (Homo sapiens, UniProt P54762)
T1 sequence (P54762 18-984): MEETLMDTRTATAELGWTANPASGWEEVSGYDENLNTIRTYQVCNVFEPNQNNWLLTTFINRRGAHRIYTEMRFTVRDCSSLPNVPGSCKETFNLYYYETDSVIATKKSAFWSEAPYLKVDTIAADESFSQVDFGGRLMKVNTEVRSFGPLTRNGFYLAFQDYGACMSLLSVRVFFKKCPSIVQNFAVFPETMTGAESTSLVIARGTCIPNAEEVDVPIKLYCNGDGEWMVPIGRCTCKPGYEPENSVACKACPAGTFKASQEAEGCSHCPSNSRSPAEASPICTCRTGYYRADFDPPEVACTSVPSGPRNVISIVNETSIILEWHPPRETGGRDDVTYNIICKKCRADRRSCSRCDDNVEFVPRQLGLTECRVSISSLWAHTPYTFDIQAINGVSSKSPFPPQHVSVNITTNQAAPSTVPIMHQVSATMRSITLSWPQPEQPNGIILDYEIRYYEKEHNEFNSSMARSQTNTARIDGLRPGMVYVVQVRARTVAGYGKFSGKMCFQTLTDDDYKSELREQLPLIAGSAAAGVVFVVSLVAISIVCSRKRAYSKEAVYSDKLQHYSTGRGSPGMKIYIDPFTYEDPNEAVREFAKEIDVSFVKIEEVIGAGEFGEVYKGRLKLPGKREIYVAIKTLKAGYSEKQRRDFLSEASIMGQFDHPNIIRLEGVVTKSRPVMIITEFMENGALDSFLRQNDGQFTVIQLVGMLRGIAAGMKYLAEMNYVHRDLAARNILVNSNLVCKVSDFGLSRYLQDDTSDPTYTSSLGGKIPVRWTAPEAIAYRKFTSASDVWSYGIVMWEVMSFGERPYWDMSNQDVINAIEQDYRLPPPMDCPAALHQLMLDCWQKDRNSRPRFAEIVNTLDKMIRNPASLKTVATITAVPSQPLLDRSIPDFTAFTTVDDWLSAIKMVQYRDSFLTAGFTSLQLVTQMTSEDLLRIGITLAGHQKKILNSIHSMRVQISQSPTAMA

[5] = biological target: T2, panel of 255 wild-type kinases (Homo sapiens, UniProt Q13237)
T2 sequence (Q13237 1-762): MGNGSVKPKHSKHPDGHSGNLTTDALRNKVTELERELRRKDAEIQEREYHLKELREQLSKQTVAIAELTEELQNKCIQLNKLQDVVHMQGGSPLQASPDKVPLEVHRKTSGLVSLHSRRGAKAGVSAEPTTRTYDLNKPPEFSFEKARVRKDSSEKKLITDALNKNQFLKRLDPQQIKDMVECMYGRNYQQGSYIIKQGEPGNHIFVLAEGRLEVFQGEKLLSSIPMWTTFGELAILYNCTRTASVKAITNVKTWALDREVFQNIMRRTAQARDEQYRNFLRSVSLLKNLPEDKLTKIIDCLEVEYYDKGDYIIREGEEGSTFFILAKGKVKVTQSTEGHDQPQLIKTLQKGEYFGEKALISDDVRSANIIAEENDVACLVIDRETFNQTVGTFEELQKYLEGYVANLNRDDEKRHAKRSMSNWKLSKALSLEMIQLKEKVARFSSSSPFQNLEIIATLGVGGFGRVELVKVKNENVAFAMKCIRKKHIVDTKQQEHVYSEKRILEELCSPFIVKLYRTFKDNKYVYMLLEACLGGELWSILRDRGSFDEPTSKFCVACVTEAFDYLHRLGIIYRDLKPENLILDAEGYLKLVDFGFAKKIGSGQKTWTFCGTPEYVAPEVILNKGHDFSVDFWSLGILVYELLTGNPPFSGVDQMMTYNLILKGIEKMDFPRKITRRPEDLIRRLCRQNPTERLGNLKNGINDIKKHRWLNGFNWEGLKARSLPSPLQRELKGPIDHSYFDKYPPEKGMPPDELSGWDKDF

[6] = biological target: panel of 255 wild-type kinases (Homo sapiens, UniProt Q9H4B4)
[7] = biological target: panel of 255 wild-type kinases (Homo sapiens, UniProt P78368)
[8] = biological target: panel of 255 wild-type kinases (Homo sapiens, UniProt Q13627)
[9] = biological target: panel of 255 wild-type kinases (Homo sapiens, UniProt P51812)
[10] = kinase CLK1, 1 µmol/L single concentration, ref DOI: 10.1158/1535-7163.MCT-18-0877
[11] = kinase PKR, 1 µmol/L single concentration, ref DOI: 10.1158/1535-7163.MCT-18-0877
[12] = AMPKα1/β1/γ1 kinase assay, 1 µmol/L single concentration, ref DOI: 10.1158/1535-7163.MCT-18-0877
[13] = kinase EPHB1, 1 µmol/L single concentration, ref DOI: 10.1158/1535-7163.MCT-18-0877
[14] = CGK2 kinase assay, 1 µmol/L single concentration, ref DOI: 10.1158/1535-7163.MCT-18-0877
[15] = kinase PLK3, 1 µmol/L single concentration, ref DOI: 10.1158/1535-7163.MCT-18-0877
[16] = kinase CK1γ2, 1 µmol/L single concentration, ref DOI: 10.1158/1535-7163.MCT-18-0877
[17] = kinase DYRK1A, 1 µmol/L single concentration, ref DOI: 10.1158/1535-7163.MCT-18-0877
[18] = kinase RSK2, 1 µmol/L single concentration, ref DOI: 10.1158/1535-7163.MCT-18-0877
[19] = kinase CLK1, 1 µmol/L single concentration, ref DOI: 10.1371/journal.pone.0092146
[20] = kinase PKR, 1 µmol/L single concentration, ref DOI: 10.1371/journal.pone.0092146
[21] = AMPKα1/β1/γ1 kinase assay, 1 µmol/L single concentration, ref DOI: 10.1371/journal.pone.0092146
[22] = kinase EPHB1, 1 µmol/L single concentration, ref DOI: 10.1371/journal.pone.0092146
[23] = CGK2 kinase assay, 1 µmol/L single concentration, ref DOI: 10.1371/journal.pone.0092146
[24] = kinase PLK3, 1 µmol/L single concentration, ref DOI: 10.1371/journal.pone.0092146
[25] = kinase DYRK1A, 1 µmol/L single concentration, ref DOI: 10.1371/journal.pone.0092146
[26] = kinase RSK2, 1 µmol/L single concentration, ref DOI: 10.1371/journal.pone.0092146
[27] = kinase CK1γ2, 1 µmol/L single concentration, ref DOI: 10.1371/journal.pone.0092146

| Compound | %-inhibition at 1 µmol/L, CLK1 [1, 10] [%] | %-inhibition at 1 µmol/L, PKR [2, 11] [%] | %-inhibition AMPKα1/β1/γ1 [3, 12] [%] | %-inhibition at 1 µmol/L, EPHB1 [4, 13] [%] | %-inhibition CGK2 [5, 14] [%] | %-inhibition at 1 µmol/L, PLK3 [6, 15] [%] | %-inhibition at 1 µmol/L, CK1γ2 [7, 16] [%] | %-inhibition at 1 µmol/L, DYRK1A [8, 17] [%] | %-inhibition at 1 µmol/L, RSK2 [9, 18] [%] | %-inhibition at 1 µmol/L, CLK1 [1, 19] [%] | %-inhibition at 1 µmol/L, EPHB1 [4, 22] [%] | %-inhibition CGK2 [5, 23] [%] | %-inhibition at 1 µmol/L, DYRK1A [8, 25] [%] | also measured |
| --- | --- | --- | --- | --- | --- | --- | --- | --- | --- | --- | --- | --- | --- | --- |
| CC#CC(=O)N1CCC[C@H]1c1nc(-c2ccc(C(=O)Nc3ccccn3)cc2)c2c(N)nccn12 [acalabrutinib] | -8 | 7 | -5 | -1.4 | 1.55 | 1.76 | -7 | -4.57 | 0.054 |  |  |  |  |  |
| CCc1cc2c(cc1N1CCC(N3CCOCC3)CC1)C(C)(C)c1[nH]c3cc(C#N)ccc3c1C2=O [alectinib] | 43 | 5.33 | 5 | 21 | 7.53 | -4 | -0.041 | 4 | 14 |  |  |  |  |  |
| COc1cc(N2CCC(N3CCN(C)CC3)CC2)ccc1Nc1ncc(Cl)c(Nc2ccccc2P(C)(C)=O)n1 [brigatinib] |  |  |  |  |  |  |  |  |  |  |  |  |  | %-inhibition at 1 µmol/L, CLK1 [1]: 100%; %-inhibition at 1 µmol/L, PKR [2]: 14%; %-inhibition AMPKα1/β1/γ1 [3]: 80%; %-inhibition at 1 µmol/L, EPHB1 [4]: 36%; %-inhibition CGK2 [5]: 37%; %-inhibition at 1 µmol/L, PLK3 [6]: -2.57%; %-inhibition at 1 µmol/L, CK1γ2 [7]: -2.5%; %-inhibition at 1 µmol/L, DYRK1A [8]: 38%; %-inhibition at 1 µmol/L, RSK2 [9]: 97% |
| Cc1cc(Nc2ncc(Cl)c(Nc3ccccc3S(=O)(=O)C(C)C)n2)c(OC(C)C)cc1C1CCNCC1 [ceritinib] | 99 | -1 | 21 | 26 | 14 | -0.156 | 0.506 | 1.13 | 83 |  |  |  |  |  |
| O=C(c1ccc(F)c(F)c1Nc1ccc(I)cc1F)N1CC(O)([C@@H]2CCCCN2)C1 [cobimetinib] | -0.28 | 0.867 | -0.873 | 4 | 0.273 | 4 | 2.37 | -5 | 6 |  |  |  |  |  |
| C[C@@H](Oc1cc(-c2cnn(C3CCNCC3)c2)cnc1N)c1c(Cl)ccc(F)c1Cl [crizotinib] |  |  |  |  |  |  |  |  |  | 13 | 93 | -0.915 | -13 | %-inhibition at 1 µmol/L, PKR [2, 20]: 6%; %-inhibition AMPKα1/β1/γ1 [3, 21]: 16%; %-inhibition at 1 µmol/L, PLK3 [6, 24]: -2.24%; %-inhibition at 1 µmol/L, RSK2 [9, 26]: 0.217% |
| CC(C)(C)c1nc(-c2cccc(NS(=O)(=O)c3c(F)cccc3F)c2F)c(-c2ccnc(N)n2)s1 [dabrafenib] |  |  |  |  |  |  |  |  |  | 7 | 12 | -1.38 | 16 |  |
| C=CC(=O)N1CCC[C@@H](n2nc(-c3ccc(Oc4ccccc4)cc3)c3c(N)ncnc32)C1 [ibrutinib] |  | 5.63 |  | 12 | -1.77 | 1.53 | 1 | -3.54 | 7.41 |  |  |  |  |  |
| CO[C@@H]1[C@H](N(C)C(=O)c2ccccc2)C[C@H]2O[C@]1(C)n1c3ccccc3c3c4c(c5c6ccccc6n2c5c31)C(=O)NC4 [midostaurin] |  | 32 | 86 |  |  | -0.227 | -2.45 |  | 99 |  |  |  |  |  |
| C=CC(=O)Nc1cc(Nc2nccc(-c3cn(C)c4ccccc34)n2)c(OC)cc1N(C)CCN(C)C [osimertinib] | 47 | 6 | -5 | 13 | 11 | 5 | 17 | 0.712 | 42 |  |  |  |  |  |
| CC(=O)Nc1cccc(-n2c(=O)n(C3CC3)c(=O)c3c(Nc4ccc(I)cc4F)n(C)c(=O)c(C)c32)c1 [trametinib] |  |  |  |  |  |  |  |  |  | -0.618 | -8 | -2.61 | -1.23 | %-inhibition at 1 µmol/L, PKR [2, 20]: 1.13%; %-inhibition AMPKα1/β1/γ1 [3, 21]: -12%; %-inhibition at 1 µmol/L, PLK3 [6, 24]: -6.59%; %-inhibition at 1 µmol/L, CK1γ2 [7, 27]: -2.15%; %-inhibition at 1 µmol/L, RSK2 [9, 26]: -1.76% |
| CCCS(=O)(=O)Nc1ccc(F)c(C(=O)c2c[nH]c3ncc(-c4ccc(Cl)cc4)cc23)c1F [vemurafenib] |  |  |  |  |  |  |  |  |  | 5 | -1.63 | -2.26 | -18 | %-inhibition at 1 µmol/L, PKR [2, 20]: -0.765%; %-inhibition AMPKα1/β1/γ1 [3, 21]: -1.59%; %-inhibition at 1 µmol/L, PLK3 [6, 24]: -2.83%; %-inhibition at 1 µmol/L, CK1γ2 [7, 27]: 0.506%; %-inhibition at 1 µmol/L, RSK2 [9, 26]: -2.31% |
